PubChem BioAssay (NCI)
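Where inhibition never reached the appropriate level, the endpoint shown equals the highest concentration tested. Otherwise, values were interpolated linearly from a five-concentration, 48-hour dose response in 96-well plates. GI50: concentration for 50% inhibition of growth. The concentration for full growth arrest is given as TGI.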

How the values were obtained:
Experiment in all cases: growth of human tumour cells (NCI), 48 h
[1] = test system: 786-0 renal
[2] = test system: A498 renal
[3] = test system: A549 NSCLC
[4] = test system: ACHN renal
[5] = test system: BT-549 breast
[6] = test system: CAKI-1 renal
[7] = test system: CCRF-CEM leukemia
[8] = test system: COLO 205 colon
[9] = test system: DU-145 prostate
[10] = test system: HCC-2998 colon
[11] = test system: HCT-116 colon
[12] = test system: HCT-15 colon
[13] = test system: HL-60(TB) leukemia
[14] = test system: HOP-62 NSCLC
[15] = test system: HOP-92 NSCLC
[16] = test system: HS 578T breast
[17] = test system: HT29 colon
[18] = test system: IGROV1 ovarian
[19] = test system: K-562 leukemia
[20] = test system: KM12 colon
[21] = test system: LOX IMVI melanoma
[22] = test system: M14 melanoma
[23] = test system: MALME-3M melanoma
[24] = test system: MDA-MB-231 breast
[25] = test system: MDA-MB-435
[26] = test system: MOLT-4 leukemia
[27] = test system: NCI-H226 lung
[28] = test system: NCI-H23 lung
[29] = test system: NCI-H460 lung
[30] = test system: NCI-H522 lung
[31] = test system: NCI/ADR-RES ovarian
[32] = test system: OVCAR-3 ovarian
[33] = test system: OVCAR-4 ovarian
[34] = test system: OVCAR-5 ovarian
[35] = test system: OVCAR-8 ovarian
[36] = test system: PC-3 prostate
[37] = test system: RPMI-8226 leukemia
[38] = test system: RXF 393 renal
[39] = test system: SF-268 CNS
[40] = test system: SF-295 CNS
[41] = test system: SF-539 CNS
[42] = test system: SK-MEL-2 melanoma
[43] = test system: SK-MEL-28 melanoma
[44] = test system: SK-MEL-5 melanoma
[45] = test system: SK-OV-3 ovarian
[46] = test system: SN12C renal
[47] = test system: SNB-19 CNS
[48] = test system: SNB-75 CNS
[49] = test system: SW-620 colon
[50] = test system: T-47D breast
[51] = test system: TK-10 renal
[52] = test system: U251 CNS
[53] = test system: UACC-257 melanoma
[54] = test system: UACC-62 melanoma
[55] = test system: UO-31 renal
[56] = test system: EKVX NSCLC

## O=C(C(Br)C(Br)c1ccccc1)C(Br)C(Br)c1ccccc1 (configuration not stated)
[1]
  GI50: 0.828 µM
  TGI: 2.21 µM
[2]
  GI50: 1.72 µM
  TGI: 4.12 µM
[3]
  GI50: 2.88 µM
  TGI: 10.1 µM
[4]
  GI50: 0.253 µM
  TGI: 0.63 µM
[5]
  GI50: 1.86 µM
  TGI: 3.39 µM
[6]
  GI50: 0.389 µM
  TGI: 1.37 µM
[7]
  GI50: 0.236 µM
  TGI: 0.886 µM
[8]
  GI50: 1.07 µM
  TGI: 2.8 µM
[9]
  GI50: 1.46 µM
  TGI: 2.91 µM
[10]
  GI50: 1.91 µM
  TGI: 3.52 µM
[11]
  GI50: 0.198 µM
  TGI: 0.4 µM
[12]
  GI50: 0.277 µM
  TGI: 0.849 µM
[13]
  GI50: 0.694 µM
  TGI: 2.75 µM
[14]
  GI50: 3.08 µM
  TGI: 8.89 µM
[15]
  GI50: 1.46 µM
  TGI: 3.01 µM
[16]
  GI50: 2.58 µM
  TGI: 8.4 µM
[17]
  GI50: 0.346 µM
  TGI: 1.2 µM
[18]
  GI50: 1.61 µM
  TGI: 3.41 µM
[19]
  GI50: 0.302 µM
  TGI: 1.38 µM
[20]
  GI50: 2.1 µM
  TGI: 4.27 µM
[21]
  GI50: 0.633 µM
  TGI: 1.88 µM
[22]
  GI50: 1.95 µM
  TGI: 4.41 µM
[23]
  GI50: 1.4 µM
  TGI: 3.4 µM
[24]
  GI50: 1.31 µM
  TGI: 2.83 µM
[25]
  GI50: 1.14 µM
  TGI: 3.07 µM
[26]
  GI50: 0.348 µM
  TGI: 1.41 µM
[27]
  GI50: 1.74 µM
  TGI: 3.71 µM
[28]
  GI50: 2.02 µM
  TGI: 4.83 µM
[29]
  GI50: 2.27 µM
  TGI: 5.3 µM
[30]
  GI50: 0.233 µM
  TGI: 0.61 µM
[31]
  GI50: 2.95 µM
  TGI: 13.3 µM
[32]
  GI50: 0.511 µM
  TGI: 1.67 µM
[33]
  GI50: 1.14 µM
  TGI: 2.52 µM
[34]
  GI50: 1.57 µM
  TGI: 2.95 µM
[35]
  GI50: 0.665 µM
  TGI: 2.22 µM
[36]
  GI50: 2.03 µM
  TGI: 5.4 µM
[37]
  GI50: 0.325 µM
  TGI: 1.33 µM
[38]
  GI50: 0.527 µM
  TGI: 1.77 µM
[39]
  GI50: 2.26 µM
  TGI: 5.62 µM
[40]
  GI50: 4.6 µM
  TGI: 13.6 µM
[41]
  GI50: 1.66 µM
  TGI: 3.19 µM
[42]
  GI50: 1.87 µM
  TGI: 3.78 µM
[43]
  GI50: 1.62 µM
  TGI: 3.36 µM
[44]
  GI50: 1.69 µM
  TGI: 3.51 µM
[45]
  GI50: 4.67 µM
  TGI: 19.3 µM
[46]
  GI50: 1.78 µM
  TGI: 3.83 µM
[47]
  GI50: 3.49 µM
  TGI: 14.9 µM
[48]
  GI50: 1.77 µM
  TGI: 6.14 µM
[49]
  GI50: 0.321 µM
  TGI: 1.09 µM
[50]
  GI50: 0.279 µM
  TGI: 1.42 µM
[51]
  GI50: 0.311 µM
  TGI: 1.44 µM
[52]
  GI50: 1.89 µM
  TGI: 4.53 µM
[53]
  GI50: 1.37 µM
  TGI: 2.92 µM
[54]
  GI50: 1.32 µM
  TGI: 2.69 µM
[55]
  GI50: 0.236 µM
  TGI: 0.846 µM

## CCCCSSC(=S)N(CC)CC
[1]
  GI50: > 100 µM
  TGI: > 100 µM
[2]
  GI50: > 100 µM
  TGI: > 100 µM
[3]
  GI50: > 100 µM
  TGI: > 100 µM
[4]
  GI50: 46.9 µM
  TGI: > 100 µM
[5]
  GI50: 26.1 µM
  TGI: 75.9 µM
[6]
  GI50: 18.3 µM
  TGI: 54.5 µM
[7]
  GI50: 18.4 µM
  TGI: > 100 µM
[9]
  GI50: 53.9 µM
  TGI: > 100 µM
[56]
  GI50: > 100 µM
  TGI: > 100 µM
[10]
  GI50: > 100 µM
  TGI: > 100 µM
[11]
  GI50: 19 µM
  TGI: 37 µM
[12]
  GI50: 73.6 µM
  TGI: > 100 µM
[13]
  GI50: 12.4 µM
  TGI: 69.2 µM
[14]
  GI50: > 100 µM
  TGI: > 100 µM
[15]
  GI50: 26.9 µM
  TGI: > 100 µM
[16]
  GI50: 38.6 µM
  TGI: > 100 µM
[19]
  GI50: 17.5 µM
  TGI: 40.1 µM
[21]
  GI50: 20.6 µM
  TGI: 48.8 µM
[22]
  GI50: 25.7 µM
  TGI: 87 µM
[23]
  GI50: 32.4 µM
  TGI: > 100 µM
[24]
  GI50: 32.4 µM
  TGI: > 100 µM
[25]
  GI50: 33.9 µM
  TGI: > 100 µM
[26]
  GI50: 20.2 µM
  TGI: 54.9 µM
[27]
  GI50: > 100 µM
  TGI: > 100 µM
[28]
  GI50: > 100 µM
  TGI: > 100 µM
[29]
  GI50: 25.4 µM
  TGI: > 100 µM
[31]
  GI50: 34.3 µM
  TGI: > 100 µM
[32]
  GI50: 20.4 µM
  TGI: 42.6 µM
[33]
  GI50: 16.9 µM
  TGI: 32.3 µM
[34]
  GI50: 36.4 µM
  TGI: > 100 µM
[35]
  GI50: 34.3 µM
  TGI: > 100 µM
[36]
  GI50: 34.3 µM
  TGI: > 100 µM
[37]
  GI50: 17.9 µM
  TGI: 40.1 µM
[38]
  GI50: 23.3 µM
  TGI: 49.4 µM
[39]
  GI50: 41.7 µM
  TGI: > 100 µM
[40]
  GI50: 37.1 µM
  TGI: > 100 µM
[41]
  GI50: 21.1 µM
  TGI: 56.5 µM
[42]
  GI50: 57.7 µM
  TGI: > 100 µM
[43]
  GI50: 23.4 µM
  TGI: 78.3 µM
[44]
  GI50: 21 µM
  TGI: > 100 µM
[45]
  GI50: > 100 µM
  TGI: > 100 µM
[46]
  GI50: 35.7 µM
  TGI: > 100 µM
[47]
  GI50: > 100 µM
  TGI: > 100 µM
[48]
  GI50: 55.5 µM
  TGI: > 100 µM
[49]
  GI50: 16.7 µM
  TGI: 32.9 µM
[50]
  GI50: 90.5 µM
  TGI: > 100 µM
[51]
  GI50: 41.2 µM
  TGI: > 100 µM
[52]
  GI50: 28.8 µM
  TGI: > 100 µM
[53]
  GI50: 79.5 µM
  TGI: > 100 µM
[54]
  GI50: 34.2 µM
  TGI: > 100 µM
[55]
  GI50: 20.9 µM
  TGI: 47.6 µM
